Source: patent US20140248342A1, “Fe(III) 2,4-Dioxo-1-Carbonyl Complexes For Treatment And Prophylaxis Of Iron Deficiency Symptoms And Iron Deficiency Anaemias” (Vifor (International) AG, priority 2011, published 2014)
Like-named read-outs stand apart in the source and are kept apart here.

Assays:
[1] = tested on: Male NMRI (SPF) mice fed a low-iron diet; assay: Iron utilization in mouse model (low-iron diet, hemoglobin and body weight increase); format: in vivo; settings: stomach tube, 2 mg iron/kg body weight/day, days 1-5 and 8-12; utilization on day 15 calculated from hemoglobin and body weight increase
Protocol: The excellent Fe utilizations that can be accomplished through the Fe complexes according to the invention were measured by means of the following mouse model.
Male NMRI (SPF) mice (approximately 3 weeks old) were fed a low-iron diet (approx. 5 ppm iron) for approximately 3 weeks. The iron complexes were then administered to them by means of a stomach tube (2 mg iron/kg body weight/day) 2 times a day for 5 days, with an interruption of 2 days (days 1-5 and 8-12). Utilization on day 15 was calculated from the hemoglobin increase and the body weight increase in accordance with the formula
0.07=Factor for 70 ml blood per kg body weight (BW)
Hb1=Hemoglobin level (g/l) on day 1 Hb2(3)=Hemoglobin level (g/l) on day 8 (or 15) BW4=body weight (g) on day 1 BW9(14)=body weight (g) on day 8 (or 15) Hb1 Control=average hemoglobin level (g/l) on day 1 in the control group, Hb2(3) Control=average hemoglobin level (g/l) on day 8 (or 15) in the control group, BW4 Control=average body weight (g) on day 1 in the control group, BW9(14) Control=average body weight (g) on day 8 (or 15) in the control group, Fe Dos.=entire administered iron (mg Fe) over 5 or 10 days,
Δ Utilization=Fe tot. utilized (examined group)−Fe ut. Control group, utilized from food, (mg Fe)

Sprague-Dawley rats [2] = settings: cited from earlier work; for toxicity in animal studies (in words): literature report London, Smith 1983
Sprague-Dawley rats [3] = assay: Toxicity compared with Fe(acac)3: oral administration, single dose, observation until 24 h; format: in vivo; settings: for Number of dead animals after 24 h / animals still alive after 24 hours: 6 Sprague-Dawley rats; for toxicological findings after 24 hours: Sprague-Dawley rats
Excerpt: The toxicity of the novel iron complex compounds was compared with that of tris(acetylacetonate)iron.

Compound | Utilization n 15 d (abs. %) [1] | also measured
Tris-(ethyl oxo(2-oxocyclohexyl)acetate)-iron(III)-complex [Example 6] | 65 abs. % | –
CC(=O)/C=C(/C)[O-].CC(=O)/C=C(/C)[O-].CC(=O)/C=C(/C)[O-].[Fe+3] [Fe(Acac)3, tris(acetylacetonate)iron] | – | toxicity in animal studies (in words) (Sprague-Dawley rats [2]): highly toxic; toxicity in animal studies (in words) (Sprague-Dawley rats [2]; listed as iron(III)-(acetylacetonate)3): very toxic; Number of dead animals after 24 h (Sprague-Dawley rats [2]; single oral dose 1000 mg/kg iron complex (160 mg/kg iron), 10 animals, Lit. 1): 6
Tris-(ethyl 2,4-dioxopentanoate)-iron(III)-complex [Example 1] | 106 abs. % | Number of dead animals after 24 h (Sprague-Dawley rats [3]; single oral dose 1600 mg/kg iron complex (170 mg/kg iron)): 0; animals still alive after 24 hours (Sprague-Dawley rats [3]; single oral dose 1600 mg/kg): 6; toxicological findings after 24 hours (Sprague-Dawley rats [3]; single oral dose 1600 mg/kg): absolutely no toxicological findings
Tris-(ethyl oxo(2-oxocyclopentyl)acetate)-iron(III)-complex [Example 5] | 59 abs. % | –
Tris-(N,N,5,5-tetramethyl-2,4-dioxohexanamide)-iron(III)-complex [Example 8] | 72 abs. % | –
Tris-(5-methyl-1-(morpholin-4-yl)hexane-1,2,4-trione)-iron(III)-complex [Example 11] | 51 abs. % | –
Tris-(2,4-dioxopentanamide)-iron(III)-complex [Example 3] | 82 abs. % | Number of dead animals after 24 h (Sprague-Dawley rats [3]; single oral dose 1400 mg/kg iron complex (170 mg/kg iron)): 0; animals still alive after 24 hours (Sprague-Dawley rats [3]; single oral dose 1400 mg/kg): 6; toxicological findings after 24 hours (Sprague-Dawley rats [3]; single oral dose 1400 mg/kg): absolutely no toxicological findings
Tris-(N,N,5,-trimethyl-2,4-dioxohexanamid)-iron(III)-complex [Example 9] | 89 abs. % | –
Tris-(1-(morpholin-4-yl)pentane-1,2,4-trione)-iron(III)-complex [Example 12] | 75 abs. % | –
Tris-(methyl 2,4-dioxopentanoate)-iron(III)-complex [Example 2] | 94 abs. % | –
